# Values joined by “and” are separate entries in the source; they are usually repeats but may differ in a detail not shown here. Identical values can stand only once. Counter-ions that a name gives are not always drawn.
# Columns and labels:
# [1] = target: T1, cloned human kappa receptor (Homo sapiens, UniProt P41145); assay: [3H]U69593 (agonist) binding to the cloned human kappa receptor; conditions: Ki, nM 3H-U-69,593
# [2] = system: formalin-induced flinching; assay: animal or person; assay type: in vivo, male Sprague-Dawley rats; conditions: rat, in vivo
# [3] = target: T1, cloned human kappa receptor; assay: biochemical; assay type: binding; conditions: for inhibition at 1 µM: read-out: 3H-Diprenorphin, % @ 1 uM
# T1 sequence (P41145 whole entry): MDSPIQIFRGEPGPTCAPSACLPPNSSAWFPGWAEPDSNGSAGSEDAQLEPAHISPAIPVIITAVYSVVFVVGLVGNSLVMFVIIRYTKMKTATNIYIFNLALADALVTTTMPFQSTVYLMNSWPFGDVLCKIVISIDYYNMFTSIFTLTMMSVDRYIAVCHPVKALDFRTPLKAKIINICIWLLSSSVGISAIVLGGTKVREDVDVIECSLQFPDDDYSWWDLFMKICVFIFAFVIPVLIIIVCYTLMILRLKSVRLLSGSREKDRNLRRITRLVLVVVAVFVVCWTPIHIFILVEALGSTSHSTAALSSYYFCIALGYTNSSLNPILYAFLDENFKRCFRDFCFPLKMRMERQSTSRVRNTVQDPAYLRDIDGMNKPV
Structure (SMILES),Ki [1],"Late Phase Formalin, % @ 300; i.paw [2] [% @ 300]",melting point,"Ki ([3]; Ki, nM 3H-Diprenorphin)",Late Phase Formalin A50 (mg); i.paw [2],inhibition at 1 µM [3] [%],"Ki ([3]; Table I, read-out: Ki, nM 3H-Diprenorphin) [nM]"
"Cl.O=C(Cc1ccc(Cl)c(Cl)c1)N1CCN(Cc2ccccc2)C[C@H]1CN1CCCC1 [(R-1), (R)-4-(Phenylmethyl)-1-[(3,4-dichlorophenyl)acetyl]-2-[(1-pyrrolidinyl)methyl]piperazine hydrochloride]",9.3 nM,53,168 to 170 °C,57 nM and 38 nM,–,–,–
"CS(=O)(=O)N1CCN(C(=O)Cc2ccc(Cl)c(Cl)c2)[C@H](CN2CCCC2)C1.Cl [(R-3a), (R)-4-Methanesulfonyl-1-[(3,4-dichlorophenyl)acetyl]-2-[(1-pyrrolidinyl)methyl]-piperazine hydrochloride]",0.19 nM and 0.5 nM,–,130 to 132 °C,0.2 nM and 1.3 nM,14 (5.6-29) mg,–,–
"Cl.Cl.O=C(O)CN1CCN(C(=O)Cc2ccc(Cl)c(Cl)c2)[C@H](CN2CCCC2)C1 [(R-3c), (R)-4-[(3,4-dichlorophenyl)acetyl]-3-[(1-pyrrolidinyl)methyl]-1-piperazineacetic acid dihydrochloride]",23 nM and 21 nM,26,190 °C (dec.),–,–,62,–
"CC(=O)N1CCN(C(=O)Cc2ccc(Cl)c(Cl)c2)[C@H](CN2CCCC2)C1.Cl [(R-3f), (R)-4-Acetyl-1-[(3,4-dichlorophenyl)acetyl]-2-[(1-pyrrolidinyl)methyl]-piperazine hydrochloride]",0.11 nM and 0.14 nM,95,153 to 155 °C,4.2 nM and 1.4 nM,–,–,–
"Cl.NC(=O)N1CCN(C(=O)Cc2ccc(Cl)c(Cl)c2)[C@H](CN2CCCC2)C1 [(R-3i), (R)-4-[(3,4-Dichlorophenyl)acetyl]-3-[(1-pyrrolidinyl)methyl]-1-piperazinecarboxamide hydrochloride]",2.9 nM,68,–,56 nM and 29 nM,–,–,–
"Cl.O=CN1CCN(C(=O)Cc2ccc(Cl)c(Cl)c2)[C@H](CN2CCCC2)C1 [(R-3j), (R)-4-[(3,4-Dichlorophenyl)acetyl]-3-[(1-pyrrolidinyl)methyl]-1-piperazinecarboxaldehyde hydrochloride]",0.4 nM,65,126 °C (dec.),–,–,96,–
"Cc1ccc(S(=O)(=O)N2CCN(C(=O)Cc3ccc(Cl)c(Cl)c3)[C@H](CN3CCCC3)C2)cc1 [(R-3l), (R)-4-(4-Methyphenylsulfonyl)-1-[(3,4-dichlorophenyl)acetyl]-2-[(1-Pyrrolidinyl)methyl]-piperazine hydrochloride]",6.2 nM,24,–,–,–,–,120
O=C(Cc1ccc(C(F)(F)F)cc1)N1CCN(Cc2ccccc2)CC1CN1CCCC1 (centres unmarked) [(R.S-11)],0.39 nM and 0.57 nM,92,–,2.2 nM and 2.4 nM,–,–,–
"COC(=O)N1CCN(C(=O)Cc2ccc(Cl)c(Cl)c2)C(CN2CCCC2)C1 (centres unmarked) [GR 89696, reference compound]",1.6 nM and 1.5 nM,–,–,0.095 nM and 0.1 nM,0.35(0.20-0.62) mg,–,–

# Reference: patent publication US20050020576A1, “Kappa agonist compounds and pharmaceutical formulations thereof” (priority 1996, published 2005)
